Entries after “also recorded” stand apart in the source; their conditions may differ.
How the values were obtained:
[1] = cited from earlier work; for Free Cmax highest: Supplementary Table S1
[2] = ref National library of medicine, Daylimed; cited from earlier work
[3] = test system: rat primary cortical neurons; experiment: MEA hazard scoring in rat primary cortical neuronal cultures; details: for Area.Under.Cross.Correlation Lower.TI / Area.Under.Cross.Correlation Upper.TI / Burst.Duration...Avg.(s. Lower.TI) / Burst.Duration...Avg.(s. Upper.TI) / Mean.Firing.Rate..Hz. Lower.TI / Mean.Firing.Rate..Hz. Upper.TI / Median.Mean.ISI Lower.TI / Median.Mean.ISI Upper.TI: statistical tolerance interval of the ΔΔ% effect, One-sided interval; for hazard classification in the hazard scoring system: rat primary neurons on MEA
Experimental: At DIV28, spontaneous neuronal activity obtained for 30 min in culture solution was defined as the baseline.
Data analysis was captured using AxIs suite software (Axion Biosystems Inc., version 3.6.2) and further analyzed using GraphPad Prism (version 9.00; GraphPad Software Inc., San Diego, CA). […] An active well should have more than 40% active electrodes. All wells below this threshold were discarded upon these quality criteria. For the downstream statistical analysis, the data on each MEA parameter was first expressed as the ratio of exposed wells (percentage change between baseline and the treatment) and then normalized to the average of the control within the same plate. i.e., Baseline corrected ratios of n= 7 or eight wells were averaged per condition. Each well of the MEA served as its own control, and the changes in the electrical activity elicited by the treatments were expressed as a percentage of that control activity and normalized to the wells treated with the vehicle control dimethyl sulfoxide (DMSO). […] Differences were determined using the non-parametric Wilcoxon Mann Whitney test; p-values below 0.05 were considered significant. Data are expressed as means ± S.E.M.
Thereafter, based on the effects of vehicles and positive controls, we determined the cut-off points between the different effect zones according to the key parameters selected as described in the previous subsection. The zones were defined as follows. The “no effect” zone reflects parameter changes that are most likely within vehicle variability. The “mild” and “strong” zones are differentiated bidirectionally showing mild and strong effects.
The respective hazard class was determined by a cumulative scoring of individual parameters using a scoring matrix, which was based on the following three fundamental components: (1) selection of the six key relevant parameters, (2) defining the cutoffs for the level of effect, and (3) defining weighted points per parameter for the level of hazard potential. The scoring matrix concluded with the addition of a weighted point algorithm to discriminate distinct degrees of neuronal hazard. […] The weighted points were defined on the importance of a parameter (and the direction of effect), as well as the identification of an expected hazard for different pharmacological modes of action. The overall hazard score is derived from the sum of all weighted parameters, which could be converted into a specific hazard label. The weighted points and total score range associated with the various hazard labels were optimized using an iterative process.

[4] = WHO adverse drug reactions VigiBase; ref Kumlien and Lundberg, 2010; cited from earlier work
[5] = seizure ADR frequency in SIDER; ref Campillos et al., 2008; Kuhn et al., 2010; cited from earlier work
[6] = established from VigiBase, SIDER, Elsevier drug information and FDA prescribing information

Compound	Free Cmax highest [1]	FDA prescription information at therapeutic dose (Convulsion/ Seizure/Lower the seizure threshold/withdrawal) [2]	Percentage seizures of total number of ADRs [4]	SIDER ADR on-/off-label [5]	Classification* (degree of seizure risk) [6]	further results
CN(C)CCC=C1c2ccccc2CCc2ccccc21 [Amitriptyline]	0.173 µM	not found on label	1.447%	no frequency information	–	Area.Under.Cross.Correlation Lower.TI [3]: -100; Area.Under.Cross.Correlation Upper.TI [3]: -28.75; Burst.Duration...Avg.(s. Lower.TI) [3]: -100; Burst.Duration...Avg.(s. Upper.TI) [3]: 2740; Mean.Firing.Rate..Hz. Lower.TI [3]: -100; Mean.Firing.Rate..Hz. Upper.TI [3]: -25.19; Median.Mean.ISI Lower.TI [3]: -60.49; Median.Mean.ISI Upper.TI [3]: 9.96
CN1CCc2cccc3c2[C@H]1Cc1ccc(O)c(O)c1-3 [Apomorphine]	0.0004 µM	not found on label	0.382%	not found on label	–	–
O=C1CCc2ccc(OCCCCN3CCN(c4cccc(Cl)c4Cl)CC3)cc2N1 [Aripiprazole]	0.011 µM	on label	1.175%	Postmarketing	–	–
COC(=O)C1=C(C)NC(C)=C([N+](=O)[O-])C1c1ccccc1C(F)(F)F (stereo not drawn) [BayK 8644]	–	–	–	–	No risk	–
Cn1c(=O)c2c(ncn2C)n(C)c1=O [Caffeine]	23.3 µM	–	–	–	–	Area.Under.Cross.Correlation Lower.TI [3]: 6.336; Area.Under.Cross.Correlation Upper.TI [3]: 111.5; Burst.Duration...Avg.(s. Lower.TI) [3]: -5.73; Burst.Duration...Avg.(s. Upper.TI) [3]: 16.22; Mean.Firing.Rate..Hz. Lower.TI [3]: 8.914; Mean.Firing.Rate..Hz. Upper.TI [3]: 94.17; Median.Mean.ISI Lower.TI [3]: -1.251; Median.Mean.ISI Upper.TI [3]: 10.27
NC(=O)N1c2ccccc2C=Cc2ccccc21 [Carbamazepine]	12.1 µM	not found on label	5.289%	common	–	–
C[C@@](Cc1ccc(O)c(O)c1)(NN)C(=O)O [Carbidopa]	0.55 µM	on label	0.8032%	no frequency information	–	–
Cc1ccc(-c2cc(C(F)(F)F)nn2-c2ccc(S(N)(=O)=O)cc2)cc1 [Celecoxib]	0.41 µM	not found on label	0.3553%	not found on label	–	hazard classification in the hazard scoring system [3]: high hazard
NS(=O)(=O)c1cc2c(cc1Cl)NC(C1CC3C=CC1C3)NS2(=O)=O (stereo not drawn) [Cyclothiazide]	3 µM	–	0%	–	Risk	–
C[C@@H]1C[C@H]2[C@@H]3CCC4=CC(=O)C=C[C@]4(C)[C@@]3(F)[C@@H](O)C[C@]2(C)[C@@]1(O)C(=O)CO [Dexamethasone]	0.025 µM	On label	0.5218%	no frequency information	–	–
C[C@]12N[C@H](Cc3ccccc31)c1ccccc12 [Dizocilpine (MK-801), Dizocilpine]	–	–	–	–	–	Area.Under.Cross.Correlation Lower.TI [3]: -94.33; Area.Under.Cross.Correlation Upper.TI [3]: -47.25; Burst.Duration...Avg.(s. Lower.TI) [3]: -41.38; Burst.Duration...Avg.(s. Upper.TI) [3]: 248.8; Mean.Firing.Rate..Hz. Lower.TI [3]: -92.35; Mean.Firing.Rate..Hz. Upper.TI [3]: -66.07; Median.Mean.ISI Lower.TI [3]: -38.05; Median.Mean.ISI Upper.TI [3]: 23.07
COc1cccc2c1C(=O)c1c(O)c3c(c(O)c1C2=O)C[C@@](O)(C(=O)CO)C[C@@H]3O[C@H]1C[C@H](N)[C@H](O)[C@H](C)O1 [Doxorubicin]	3.99 µM	On label	0.3099%	postmarketing, uncommon	–	–
N[C@@]1(C(=O)O)CC[C@H]2[C@H](C(=O)O)[C@H]21 [Eglumetad (LY354740), Eglumetad]	–	–	–	–	Risk	–
CCN1C(=O)OC(C)(C)C1=O [Ethadione]	–	–	–	–	Risk	–
COc1ccc(COc2ccc(Cc3cnc(N)nc3N)cc2OC)cc1 [GW-2580]	–	–	–	–	Risk	–
NN [Hydrazine]	–	–	–	–	Risk	–
NNC(=O)c1ccncc1 [Isoniazid]	57 µM	on label	0.676%	no frequency information	–	–
NC(CCP(=O)(O)O)C(=O)O [L-AP 4]	–	–	–	–	Risk	–
CC[C@@H](C(N)=O)N1CCCC1=O [Levetiracetam]	276.35 µM	On label	15.5539%	2.38% - 6%	–	–
CC(=O)/N=c1/sc(S(N)(=O)=O)nn1C [Methazolamide]	20.4 µM	On label	0%	no frequency information	–	–

Compound	Free Cmax highest [1]	FDA prescription information at therapeutic dose (Convulsion/ Seizure/Lower the seizure threshold/withdrawal) [2]	Percentage seizures of total number of ADRs [4]	SIDER ADR on-/off-label [5]	Classification* (degree of seizure risk) [6]	further results
C[C@](N)(Cc1ccc(O)c(O)c1)C(=O)O [Methyldopa]	3.3 µM	not found on label	0.1002%	not found on label	–	hazard classification in the hazard scoring system [3]: high hazard
Cc1cc2c(s1)Nc1ccccc1N=C2N1CCN(C)CC1 [Olanzapine]	–	–	–	–	No risk	–
Cc1nccn1CC1CCc2c(c3ccccc3n2C)C1=O (stereo not drawn) [Ondansetron]	0.0513 µM	on label	1.344%	uncommon	–	–
Cc1ccccc1C(OCCN(C)C)c1ccccc1 (stereo not drawn) [Orphenadrine]	0.01 µM	not found on label	0.6083%	not found on label	–	–
C1CCc2nnnn2CC1 [Pentylenetetrazole]	–	–	–	–	Risk	–
O=C1NC(=O)C(c2ccccc2)(c2ccccc2)N1 [Phenytoin]	8.127 µM	On label	8.075%	infrequent (0.1-1%)	–	hazard classification in the hazard scoring system [3]: hazards; also recorded: high hazard
CC[C@@H]1C(=O)OC[C@@H]1Cc1cncn1C [Pilocarpine]	0.375 µM	not found on label	0.1965%	not found on label	–	–
[Br-].[K+] [Potassium bromide]	–	not found on label	4.831%	–	No risk	–
CC(CN1c2ccccc2Sc2ccccc21)N(C)C (stereo not drawn) [Promethazine]	0.072 µM	on label	1.639%	no frequency information	–	–
Cc1ncc(CO)c(CO)c1O [Pyridoxine]	0.28 µM	not found on label	0.4851%	not found on label	–	–
Cc1ccc(COC(=O)N2CC[C@H](CNc3ncccn3)[C@H](F)C2)cc1 [Rislenemdaz (CERC-301), Rislenemdaz]	0.004 µM	–	–	–	Risk	–
CNC(=O)c1cc(Oc2ccc3nc(N[C@@H]4CCCC[C@H]4O)sc3c2)ccn1 [Sotuletinib]	–	–	–	–	Risk	–
O=C1C[C@@H]2OCC=C3CN4CC[C@]56c7ccccc7N1[C@H]5[C@H]2[C@H]3C[C@H]46 [Strychnine]	–	–	0%	–	Risk	–
NC[C@H]1CC[C@H](C(=O)O)CC1 [Tranexamic Acid]	101.25 µM	On label	1.5%	postmarketing	–	free Cmax concentration in man [1]: > 100 µM
OC(CCN1CCCCC1)(c1ccccc1)C1CCCCC1 (stereo not drawn) [Trihexyphenidyl]	0.024 µM	not found on label	0.7979%	not found on label	–	–
CCCC(CCC)C(=O)O [Valproic acid]	92 µM	on label	4.854%	not found on label	–	–
O=C1c2ccccc2C(Cc2ccncc2)(Cc2ccncc2)c2ccccc21 [XE-991]	–	–	–	–	Risk	–
CCCCCCOc1nsnc1C1=CCCN(C)C1 [Xanomeline]	–	–	–	–	Risk	–
Tertiapin	–	–	–	–	Low risk	–

From paper PMC11170107, “Development of a new hazard scoring system in primary neuronal cell cultures for drug-induced acute neuronal toxicity identification in early drug discovery” (Frontiers in Pharmacology, 2024)
